Test results as given in US6608082B1, “Treatment of erectile dysfunction using isoquinoline compound melanocortin receptor ligands” (Lion Bioscience AG, priority 1998, dated 2003).

Molecular target: T1, MCR-1 (Homo sapiens, UniProt Q01726)
T1 construct: expressed in transfected cells; host or cells: HEK 293
Assay: Melanocortin receptor binding assay, competition with 125I-HP 467, HEK 293 cells expressing hMCR-1
Conditions: displacement of 125I-HP 467 at 10 μM isoquinoline compound
Protocol: All cell culture media and reagents were obtained from GibcoBRL (Gaithersburg Md.), except for COSMIC CALF SERUM (HyClone; Logan Utah).
Cells were suspended in PBS, 10% COSMIC CALF SERUM and 1 mM CaCl2. Cell suspensions were prepared at a density of 2×10^4 cells/ml for HEK 293 cells expressing hMCR-3, hMCR-4 or hMCR-5, and 1×10^5 cells/ml for HEK 293 cells expressing hMCR-1. Suspensions were placed in a water bath and allowed to warm to 37° C. for 1 hr.
Binding assays were performed in a total volume of 250 μl for HEK 293 cells. […] To each tube was added 4×10^3 HEK 293 cells expressing hMCR-3, hMCR-4 or hMCR-5, or 2×10^4 cells expressing hMCR-1. Assays were incubated for 2.5 hr at 37° C.
GF/B filter plates were prepared by soaking for at least one hour in 5 mg/ml BSA and 10 mM CaCl2. Assays were filtered using a Brandel 96-well cell harvester (Brandel Inc.; Gaithersburg, Md.). The filters were washed four times with cold 50 mM Tris, pH 7.4, the filter plates were dehydrated for 2 hr and 35 μl of MICROSCINT was added to each well. Filter plates were counted using a Packard Topcount (Packard Instrument Co.) and data analyzed using GraphPad PRISM v2.0 (GraphPad Software Inc.; San Diego Calif.) and Microsoft EXCEL v5.0a (Microsoft Corp.; Redmond Wash.).
To assay isoquinoline compounds, binding assays were performed in duplicate in a 96 well format. […] A 0.2 ml aliquot of suspended cells was added to each well to give the cell numbers indicate above, and the cells were incubated at 37° C. for 2.5 hr. Cells were harvested on GF/B filter plates as described above and counted.

T1 sequence (Q01726 whole entry): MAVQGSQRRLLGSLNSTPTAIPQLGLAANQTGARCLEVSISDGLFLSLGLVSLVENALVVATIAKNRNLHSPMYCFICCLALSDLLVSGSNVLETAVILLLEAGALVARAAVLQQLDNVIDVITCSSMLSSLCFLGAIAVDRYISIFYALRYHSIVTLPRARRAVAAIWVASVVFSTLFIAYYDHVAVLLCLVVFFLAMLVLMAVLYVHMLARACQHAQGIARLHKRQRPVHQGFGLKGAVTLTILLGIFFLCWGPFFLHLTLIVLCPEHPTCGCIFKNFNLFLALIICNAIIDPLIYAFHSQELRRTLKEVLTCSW

SMILES	% Disp. MC-1 10 μM (first of duplicate) [%]	% Disp. MC-1 10 μM (second of duplicate) [%]
NCCN1Cc2ccccc2C(CNC2CCCCC2)C1c1ccc2ccccc2n1 (stereo not drawn) [TRG 2405-22]	29.7	43.4
NCCN1Cc2ccccc2C(CNC2CCCCC2)C1c1cccs1 (stereo not drawn) [TRG 2405-23]	43	47.8
NCCN1Cc2ccccc2C(CNC2CCCCC2)C1c1ccc(O)c(O)c1 (stereo not drawn) [TRG 2405-25]	21.6	31.9
NCCN1Cc2ccccc2C(CNC2CCCCC2)C1c1ccc(Cl)c(Cl)c1 (stereo not drawn) [TRG 2405-26]	59.6	64.6
NCCN1Cc2ccccc2C(CNC2CCCCC2)C1c1ccc(F)c(F)c1 (stereo not drawn) [TRG 2405-27]	52.1	43.8
NCCN1Cc2ccccc2C(CNC2CCCCC2)C1c1cc(O)cc(O)c1 (stereo not drawn) [TRG 2405-29]	28.5	26.2
NCCN1Cc2ccccc2C(CNC2CCCCC2)C1c1cc(Cl)cc(Cl)c1 (stereo not drawn) [TRG 2405-30]	54.7	52.8
COc1cc(OC)cc(C2C(CNC3CCCCC3)c3ccccc3CN2CCN)c1 (stereo not drawn) [TRG 2405-31]	40.7	48.5
Cc1cc(C2C(CNC3CCCCC3)c3ccccc3CN2CCN)cc(C)c1O (stereo not drawn) [TRG 2405-32]	10.1	38.3
NCCN1Cc2ccccc2C(CNC2CCCCC2)C1c1cccc(Oc2ccc(Cl)c(Cl)c2)c1 (stereo not drawn) [TRG 2405-33]	54.2	48.7
COc1ccc(Oc2cccc(C3C(CNC4CCCCC4)c4ccccc4CN3CCN)c2)cc1 (stereo not drawn) [TRG 2405-34]	55.6	56.1
NCCN1Cc2ccccc2C(CNC2CCCCC2)C1c1cccc(C(F)(F)F)c1 (stereo not drawn) [TRG 2405-35]	54.6	55
NCCN1Cc2ccccc2C(CNC2CCCCC2)C1c1ccc(F)c(Br)c1 (stereo not drawn) [TRG 2405-36]	51.8	53.6
NCCN1Cc2ccccc2C(CNC2CCCCC2)C1c1cccc(Br)c1 (stereo not drawn) [TRG 2405-37]	49.7	54.4
NCCN1Cc2ccccc2C(CNC2CCCCC2)C1c1cccc(CN)c1 (stereo not drawn) [TRG 2405-39]	23.2	16.9
COc1ccc(C2C(CNC3CCCCC3)c3ccccc3CN2CCN)cc1F (stereo not drawn) [TRG 2405-40]	22.4	35.5
NCCN1Cc2ccccc2C(CNC2CCCCC2)C1c1cccc(F)c1 (stereo not drawn) [TRG 2405-41]	19.6	19.8
NCCN1Cc2ccccc2C(CNC2CCCCC2)C1c1ccoc1 (stereo not drawn) [TRG 2405-42]	43.6	40.7
NCCN1Cc2ccccc2C(CNC2CCCCC2)C1c1cccc(O)c1 (stereo not drawn) [TRG 2405-43]	32.3	23.1

SMILES	% Disp. MC-1 10 μM (first of duplicate) [%]	% Disp. MC-1 10 μM (second of duplicate) [%]
COc1cccc(C2C(CNC3CCCCC3)c3ccccc3CN2CCN)c1 (stereo not drawn) [TRG 2405-45]	40.6	31.9
COc1ccc(C2C(CNC3CCCCC3)c3ccccc3CN2CCN)cc1C (stereo not drawn) [TRG 2405-46]	46.8	40.3
NCCN1Cc2ccccc2C(CNC2CCCCC2)C1c1cccc([N+](=O)[O-])c1 (stereo not drawn) [TRG 2405-49]	37.2	42.4
NCCN1Cc2ccccc2C(CNC2CCCCC2)C1c1cccc(Oc2ccccc2)c1 (stereo not drawn) [TRG 2405-50]	61.9	50.8
NCCN1Cc2ccccc2C(CNC2CCCCC2)C1c1cccnc1 (stereo not drawn) [TRG 2405-51]	30.6	23.1
NCCN1Cc2ccccc2C(CNC2CCCCC2)C1c1cnc2ccccc2c1 (stereo not drawn) [TRG 2405-52]	42.4	42.3
NCCN1Cc2ccccc2C(CNC2CCCCC2)C1c1ccsc1 (stereo not drawn) [TRG 2405-53]	43.3	43.4
CN(C)CCCOc1ccc(C2C(CNC3CCCCC3)c3ccccc3CN2CCN)cc1 (stereo not drawn) [TRG 2405-54]	1.3	9
CN(C)c1ccc(C2C(CNC3CCCCC3)c3ccccc3CN2CCN)cc1 (stereo not drawn) [TRG 2405-55]	32.6	38.1
CSc1ccc(C2C(CNC3CCCCC3)c3ccccc3CN2CCN)cc1 (stereo not drawn) [TRG 2405-57]	17.4	42.6
NCCN1Cc2ccccc2C(CNC2CCCCC2)C1c1ccc(C(F)(F)F)cc1 (stereo not drawn) [TRG 2405-58]	56.3	46.6
CCNc1ccc(C2C(CNC3CCCCC3)c3ccccc3CN2CCN)cc1 (stereo not drawn) [TRG 2405-59]	34.3	40.1
COc1ccc(C2C(CNC3CCCCC3)c3ccccc3CN2CCN)cc1 (stereo not drawn) [TRG 2405-60]	41.4	42.4
NCCN1Cc2ccccc2C(CNC2CCCCC2)C1c1ccc(-c2ccccc2)cc1 (stereo not drawn) [TRG 2405-61]	54.7	61.9
NCCN1Cc2ccccc2C(CNC2CCCCC2)C1c1ccc(Br)cc1 (stereo not drawn) [TRG 2405-62]	32.1	54.3
NCCN1Cc2ccccc2C(CNC2CCCCC2)C1c1ccc(F)cc1 (stereo not drawn) [TRG 2405-65]	49.6	33.9
NCCN1Cc2ccccc2C(CNC2CCCCC2)C1c1ccc(O)cc1 (stereo not drawn) [TRG 2405-66]	81.6	11.3
CC(C)c1ccc(C2C(CNC3CCCCC3)c3ccccc3CN2CCN)cc1 (stereo not drawn) [TRG 2405-67]	54	51.3
COc1ccc(C2C(CNC3CCCCC3)c3ccccc3CN2CCN)c2ccccc12 (stereo not drawn) [TRG 2405-68]	55.3	52.3

SMILES	% Disp. MC-1 10 μM (first of duplicate) [%]	% Disp. MC-1 10 μM (second of duplicate) [%]
Cc1ccc(C2C(CNC3CCCCC3)c3ccccc3CN2CCN)cc1 (stereo not drawn) [TRG 2405-69]	49.8	49
NCCN1Cc2ccccc2C(CNC2CCCCC2)C1c1ccc([N+](=O)[O-])c(O)c1 (stereo not drawn) [TRG 2405-70]	19.9	46.7
NCCN1Cc2ccccc2C(CNC2CCCCC2)C1c1ccc([N+](=O)[O-])cc1 (stereo not drawn) [TRG 2405-71]	28.2	40
NCCN1Cc2ccccc2C(CNC2CCCCC2)C1c1ccc(Oc2ccccc2)cc1 (stereo not drawn) [TRG 2405-72]	50.1	57.7
CCCOc1ccc(C2C(CNC3CCCCC3)c3ccccc3CN2CCN)cc1 (stereo not drawn) [TRG 2405-73]	60.1	60.5
NCCN1Cc2ccccc2C(CNC2CCCCC2)C1c1ccncc1 (stereo not drawn) [TRG 2405-74]	35.3	0
NCCN1Cc2ccccc2C(CNC2CCCCC2)C1c1ccnc2ccccc12 (stereo not drawn) [TRG 2405-75]	38.9	17.6
Cc1ccc(C2C(CNC3CCCCC3)c3ccccc3CN2CCN)s1 (stereo not drawn) [TRG 2405-78]	33.3	40.8
Cc1ccc(C2C(CNC3CCCCC3)c3ccccc3CN2CCN)o1 (stereo not drawn) [TRG 2405-79]	17.3	26.3
Cc1cccc(C2C(CNC3CCCCC3)c3ccccc3CN2CCN)n1 (stereo not drawn) [TRG 2405-81]	0	43.1
NCCN1Cc2ccccc2C(CNC2CCCCC2)C1c1ccc2cccc(O)c2n1 (stereo not drawn) [TRG 2405-82]	18.5	29.6
CCn1c2ccccc2c2cc(C3C(CNC4CCCCC4)c4ccccc4CN3CCN)ccc21 (stereo not drawn) [TRG 2405-83]	39.1	46.9
NCCN1Cc2ccccc2C(CNC2CCCCC2)C1c1cc2c3c(c1O)CCCN3CCC2 (stereo not drawn) [TRG 2405-84]	18.2	37.5
CS(=O)(=O)c1ccc(C2C(CNC3CCCCC3)c3ccccc3CN2CCN)cc1 (stereo not drawn) [TRG 2405-87]	21.9	22.1
COc1ccc(C2C(CNC3CCCCC3)c3ccccc3CN2CCN)cc1S(=O)(=O)O (stereo not drawn) [TRG 2405-88]	5.5	0
NCCN1Cc2ccccc2C(CNC2CCCCC2)C1c1ccc(Br)o1 (stereo not drawn) [TRG 2405-89]	21.5	31.2
NCCN1Cc2ccccc2C(CNC2CCCCC2)C1c1nccs1 (stereo not drawn) [TRG 2405-90]	48.4	45.9
CNC(CN)CN1Cc2ccccc2C(CNC2CCCCC2)C1c1ccccc1 (stereo not drawn) [TRG 2405-91]	35.2	43.9
CNC(CN)CN1Cc2ccccc2C(CNC2CCCCC2)C1c1ccccc1O (stereo not drawn) [TRG 2405-92]	57.6	49.9
